In patent US7776911B2 (priority 2005, dated 2010):
Entries after “also recorded” stand apart in the source; their conditions may differ.

How the values were obtained:
[1] = tested on: P. falciparum (chloroquine-resistant); assay: P. falciparum culture growth by [3H]-hypoxanthine uptake, drugs singly or in combination, with isobolographic analysis; assay type: cell-based, Plasmodium falciparum; conditions: 48 hrs, starting parasitemia 2-3%
Protocol: (§1) Appropriate solvent controls were used. Parasite growth was measured by staining the slides with Giemsa as well as [α3H]-hypoxanthine uptake. In the latter case, the cultured cells were lysed with water and the parasites collected by filtration, washed and radioactivity measured. Adult f mice (40-50 g) were infected with P. berghei by intraperitoneal injection of an aliquot of infected mouse blood. After 24 hr, the animals were given a single injection of different amounts of artemisinin derivative at a dose of 5 mg/mouse. The oral feeding was repeated after 24 hr and 48 hr. Parasite count was measured in blood before and drug therapy at different time intervals using Giemsa to stain the slides. All the infected mice die in a span of 5-8 days and the efficacy of the drugs given singly or in combination was measured in terms of parasite clearance in blood and protection against mortality.
The potency of the combination was assessed by isobolographic characterization of the drug interactions. The additive or synergistic or antagonistic effects were assessed based on the following interaction index:
When I is less than 1 the drugs interact synergistically and the isobol bows below the line of additivity. When I is equal to 1 the isobol is coincident with the line of additivity and the interaction is additive. When I is greater than 1, the isobol bows above the line of additivity and the interaction is antagonistic. […] The interaction between curcumin and artemisinin is thus clearly synergistic.
P. falciparum (chloroquine-resistant) was maintained in culture using human O+ve red cells and serum by the candle jar method as per standard protocols. […] Appropriate solvent controls were used. Parasite growth was quantitatively measured using 3[H]-hypoxanthine uptake. The cultured cells were incubated for 48 hrs and then the parasites were collected by filtration after lysis of the cells. The filters were extensively washed and then radioactivity measured. […] The potency of the combination was assessed by isobolographic characterization of drug interactions.
The T values ranged from 0.7 to 0.85 in all combinations. The isobol bowling below the line of additivity and the T values being less than 1 indicate that the curcumin-artemisinin. Interaction is clearly synergistic

P. berghei [2] = assay: Protection of mice infected with P. berghei (mortality, parasite count in blood); assay type: in vivo
Protocol: as §1
Striking results were obtained in terms of parasite clearance and protection against mortality. The experiments were carried out with 6 mice per batch and the experiments were repeated at least 3 times. The results presented in FIG. 3 represent those obtained in a typical experiment. The results obtained in the 2nd and 3rd experiments are identical in pattern. The average pattern obtained with the infected animals is as follows. All the infected animals die in about 5-8 days. […] A single injection of artemisinin derivative (α,β-arteether) at a dose of 500 μg/mouse results in death of animals in 10-12 days. […] Treatment with a single injection α,β-arteether at 750 μg and 1.5 mg results in death of animals between 20-26 days and 32-38 days respectively. […] The animals continue to live normally for several months. This picture is also supported by parasite load in blood (FIG. 4).
Methodology; Mice (−40 g) were infected ˜ with P. berghei by intraperitoneal infection. After 24 hrs, the animals received a single injection of different concentrations of a derivative of artemisinin (α,β-arteether) (500˜g to 1.5 mg) by the intramuscular route. […] The oral treatment was repeated after 24 hr and 48 hr. Blood smears were made from the mice at different day intervals and parasites stained with Giemsa. […] The experiments were repeated thrice with 6 mice in each group.

P. falciparum = conditions: culture of P. falciparum; cited from earlier work
P. berghei [3] = conditions: mice infected with P. berghei; cited from earlier work

Row | Compound | IC50 [1] [µM] | IC50 ([1]; Plasmodium falciparum) [µM] | death of animals (P. berghei [2]; curcumin alone, 3 day oral treatment (5 mg), untreated infected mice die in 5-8 days) [days] | antimalarial activity (P. falciparum) | antimalarial activity (P. berghei [3]) | death of animals (P. berghei [2]; single injection 750 μg per mouse) [days] | death of animals (P. berghei [2]; single injection 1.5 mg per mouse) [days] | parasite load in blood (P. berghei [2]; single injection, Giemsa stained blood smears)
1 | C[C@@H]1CC[C@H]2[C@@H](C)C(=O)O[C@@H]3O[C@@]4(C)CC[C@@H]1[C@]32OO4 [artemisinin] | ~0.055 | 0.045 to 0.055 | – | – | – | – | – | –
2 | COc1cc(/C=C/C(=O)CC(=O)/C=C/c2ccc(O)c(OC)c2)ccc1O [curcumin] | ~15 | 15 to 17 | 10 to 12 | has antimalarial activity | has antimalarial activity | – | – | –
3 | CCO[C@H]1O[C@@H]2O[C@@]3(C)CC[C@H]4[C@H](C)CC[C@@H]([C@H]1C)[C@@]24OO3 [α,β-arteether] | – | – | – | – | – | 20 to 26 | 32 to 38 | clears the parasites in blood initially, but there is recrudescence; also recorded: clears parasites in blood initially, but there was recrudescence
